Assay results reported in PubChem BioAssay (NCI).
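A five-concentration, 48-hour dose response in 96-well plates underlies each endpoint, interpolated linearly between surrounding concentrations. TGI is the concentration that stops growth completely.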 Where a SMILES comes first, the peptide text is derived from it. Bridges are numbered along the chain shown (N, C = ends). The star is where a group is joined. Cbz = O=C(OCc1ccccc1)*

Assays:
Assay in all cases: NCI-60 cell line screen, 48 h
RXF 393 renal = tested on: RXF 393 renal
RPMI-8226 leukemia = tested on: RPMI-8226 leukemia
A498 renal = tested on: A498 renal
HT29 colon = tested on: HT29 colon
SK-MEL-5 melanoma = tested on: SK-MEL-5 melanoma
SF-268 CNS = tested on: SF-268 CNS
SN12C renal = tested on: SN12C renal
UACC-257 melanoma = tested on: UACC-257 melanoma
MDA-MB-435 = tested on: MDA-MB-435
NCI-H522 lung = tested on: NCI-H522 lung
MDA-N = tested on: MDA-N
SW-620 colon = tested on: SW-620 colon
SF-539 CNS = tested on: SF-539 CNS
NCI-H460 lung = tested on: NCI-H460 lung
OVCAR-8 ovarian = tested on: OVCAR-8 ovarian
NCI-H23 lung = tested on: NCI-H23 lung
HCT-116 colon = tested on: HCT-116 colon
EKVX NSCLC = tested on: EKVX NSCLC
SNB-19 CNS = tested on: SNB-19 CNS
KM20L2 colon = tested on: KM20L2 colon

Row | SMILES | TGI (RXF 393 renal) [µM] | TGI (RPMI-8226 leukemia) [µM] | TGI (A498 renal) [µM] | TGI (HT29 colon) [µM] | TGI (SK-MEL-5 melanoma) [µM] | TGI (SF-268 CNS) [µM] | TGI (SN12C renal) [µM] | TGI (UACC-257 melanoma) [µM] | TGI (MDA-MB-435) [µM] | TGI (NCI-H522 lung) [µM] | TGI (MDA-N) [µM] | TGI (SW-620 colon) [µM] | TGI (SF-539 CNS) [µM] | TGI (NCI-H460 lung) [µM] | TGI (OVCAR-8 ovarian) [µM] | TGI (NCI-H23 lung) [µM] | TGI (HCT-116 colon) [µM] | TGI (EKVX NSCLC) [µM] | TGI (SNB-19 CNS) [µM] | TGI (KM20L2 colon) [µM]
1 | CNC(=O)C1CCCCNC(=O)CCC(NC(=O)OCc2ccccc2)C(=O)N1 (stereo not drawn) (Cbz-Glu-Lys-NHMe; lactam 1-2; configuration not given here) | > 100 | > 100 | > 100 | > 100 | > 100 | > 100 | > 100 | > 100 | > 100 | > 100 | > 100 | > 100 | > 100 | > 100 | > 100 | > 100 | > 100 | > 100 | > 100 | 
2 | O=c1[nH]c(=S)[nH]cc1CN1CCOCC1 | > 100 | > 100 | > 100 | > 100 | > 100 | > 100 | > 100 | > 100 | > 100 | > 100 | > 100 | > 100 | > 100 | > 100 | > 100 | > 100 | > 100 | > 100 | > 100 | 
3 | COc1cccc(OC)c1C1ON=C(c2ccccc2)N1C12CC3CC(CC(C3)C1)C2 (stereo not drawn) | 11.9 | > 100 | > 100 | > 100 | > 100 | > 100 | > 100 | > 100 | > 100 | > 100 | > 100 | > 100 | > 100 | > 100 | > 100 | > 100 | > 100 | > 100 | > 100 | 
4 | CC[C@@H]1/C=C/C=C/C[C@H](C)[C@@H](O)[C@@H](C)C(=O)[C@H](C)[C@@H](O)[C@H](C)C(=O)[C@H](C)[C@@H](O)[C@H](C)/C=C/C(=O)O[C@H]2[C@@H](C)[C@@H](CC1)O[C@@]1(CC[C@@H](C)[C@@H](CC(C)O)O1)[C@@H]2C (stereo partly drawn) | 9.44 | 14.7 | 11 | 13.9 | 3.38 | > 25 | 9.9 | 1.82 | > 18.3 | 11.4 | > 17.6 | > 25 | 24.6 | > 22.2 | > 25 | > 25 | > 25 | 7.44 | > 25 | 
5 | C#CCOC(=O)C(N)CC(N)=O (stereo not drawn) | > 100 | > 100 | > 100 | > 31.6 | > 100 | > 100 | > 100 | > 100 | > 100 | > 100 | > 100 | > 100 | > 100 | > 100 | > 100 | > 100 | > 100 | > 100 | > 100 | 
6 | CC(C)=CCC[C@@H](C)[C@H]1CC[C@@]2(C)[C@@H]3CC[C@H]4C(C)(C)[C@@H](O)CC[C@@]45C[C@@]35CC[C@]12C | 45.1 | > 88.7 | > 94.3 | > 100 | > 64.4 | > 76.4 | 41.8 | > 100 | > 68.8 | 49.3 | > 100 | > 100 | > 70.9 | 39.8 | 42.6 | 50.7 | > 77.9 | > 88.8 | > 100 | 
7 | O=C(Cc1ccccc1)NN1C(=O)C(Cl)C1c1ccc(Cl)cc1 (stereo not drawn) | > 100 | > 100 |  | > 100 | > 100 | > 100 | > 100 | > 100 |  | > 100 |  | > 100 |  | > 100 | > 100 | > 100 | > 100 | > 100 | > 100 | > 100
8 | NS(=O)(=O)c1ccc(NC(=S)NC(=O)Nc2ccc(Cl)c(Cl)c2)cc1 | 35.4 | > 85.3 | 7.51 | 31.3 | 31.1 | 32.3 | 31 | 41.4 | 35.7 | 37.3 | 29.6 | 35.9 | 39.7 | > 69.8 | 41.2 | 33.7 | 27.7 | 51 | 24.5 | 
9 | N/N=c1/nc2n(c3ncccc13)C=CNN2 | > 100 | > 100 |  | > 100 | > 100 | > 100 | > 100 | > 100 |  | > 100 |  | > 100 | > 100 | > 100 | > 100 | > 100 | > 100 | > 100 | > 100 | > 100
10 | C=CC(=O)NCCC(=O)OCn1cc(F)c(=O)[nH]c1=O | 94.6 | > 100 | > 100 | > 100 | > 100 | > 100 | 15.3 | > 100 | > 100 | > 100 | > 100 | > 100 | > 100 | 2.34 | > 100 | > 100 | 66.8 | > 100 | > 100 | 
11 | COc1ccc(/C=C/C(=O)c2cc(OC)cc(OC)c2)cc1 | 8.6 | 26.1 | 11.7 | 4.96 | 24.2 | 16.4 | 13.5 | 26.9 | 3.45 | 6.29 | 5.33 | 17.6 | 7.93 | 14.4 | 18.3 | 8.53 | 6.67 | 20 | 7.3 | 
12 | COC(=O)NC(=O)NC(Cc1ccccc1)NC(=O)OCc1ccccc1 (stereo not drawn) | 45.4 | > 100 | 91.5 | > 100 | > 100 | > 100 | > 100 | > 100 | > 100 | > 100 | > 100 | > 100 | 71.4 | > 100 | > 100 | > 100 | > 100 | > 100 | > 100 | 
